The values below come from PMC9797722 (Frontiers in Veterinary Science, 2022).

Like-named read-outs stand apart in the source and are kept apart here.

The subject of data set [1] is gastric pH. The settings on record: horses, cited from earlier work.
The conditions of data set [2]: humans, cited from earlier work.
The conditions of data set [3]: in vivo.
On the set-up of data set [4]: method as in PMID 34631865. The settings on record: goats, intravenously or subcutaneously administered, all animals; cited from earlier work.
Data set [5] relates to pH of the third compartment. On the set-up: method as in PMID 20384953. The settings on record: alpacas, administered IV or SC; cited from earlier work.
For data set [6] the following is noted: Canine, cited from earlier work.
Data set [7] is described as follows: Plasma pharmacokinetics of esomeprazole and esomeprazole sulfone in goats after IV and SC administration (HPLC, non-compartmental analysis). The note with it: for C0: C0, goats; for MRT inf: MRTinf; for k el: λz; for Vd/F: Vz/F.
The mark [8] stands for this setting: both, pygmy and pygmy-cross, plasma, iv, 1 mg/kg.
The mark [9] stands for this setting: both, pygmy and pygmy-cross, plasma, iv, 1 mg/kg, goats, 1 mg/kg IV single dose, geomean, n = 5.
The mark [10] stands for this setting: both, pygmy and pygmy-cross, plasma, iv, 1 mg/kg, goats, 1 mg/kg IV single dose, median, n = 5.
Where [11] appears, read: both, pygmy and pygmy-cross, plasma, sc, 2 mg/kg.
[12] abbreviates: both, pygmy and pygmy-cross, plasma, sc, 2 mg/kg, goats, 2 mg/kg SC (SQ) single dose, geomean, n = 5.
The mark [13] stands for this setting: both, pygmy and pygmy-cross, plasma, sc, 2 mg/kg, goats, 2 mg/kg SC (SQ) single dose, median, n = 5.
The mark [14] stands for this setting: goats, 1 mg/kg IV single dose, plasma, geomean, n = 5.
[15] abbreviates: goats, 1 mg/kg IV single dose, plasma, median, n = 5.
[16] abbreviates: goats, 2 mg/kg SC (SQ) single dose, plasma, geomean, n = 5.
Setting [17] is: goats, 2 mg/kg SC (SQ) single dose, plasma, median, n = 5.

On to `COc1ccc2[n-]c([S+]([O-])Cc3ncc(C)c(OC)c3C)nc2c1.COc1ccc2[n-]c([S+]([O-])Cc3ncc(C)c(OC)c3C)nc2c1.[Mg+2]` (stereo not shown) [esomeprazole magnesium], for which, in data set [1] (orally 60 or 80 mg, for up to 6 h post administration), the “gastric pH maintained” value was at least 5. Also, in data set [1] (orally 60 or 80 mg), the adverse reactions result was “No adverse reactions were found”.

Take `COc1ccc2[nH]c(S(=O)(=O)Cc3ncc(C)c(OC)c3C)nc2c1` [Esomeprazole Sulfone, esomeprazole sulfone]: the “activity of the metabolite within the body” value in data set [2] is “not active”. Besides, the “time detectable in plasma” value in data set [3] is under 4 h. Moreover, the “detection of sulfone metabolite in plasma” value in data set [3] (sc) is given as “no detectable sulfone metabolite”.

Regarding `COc1ccnc(C[S+]([O-])c2nc3ccc(OC(F)F)cc3[nH]2)c1OC` (stereo not shown) [pantoprazole], the “plasma concentration detected over time” value in data set [4] was “undetectable after 4 h”. Moreover, the “effect on pH of the third compartment” value in data set [5] is given as “significantly increased the pH of the third compartment”.

As for `COc1ccc2nc([S@@+]([O-])Cc3ncc(C)c(OC)c3C)[nH]c2c1` [Esomeprazole, esomeprazole], the “tolerability of maintenance therapy” value in data set [2] (daily for up to 6 months) is “generally well-tolerated”. Further, the “gastric pH raised to” value in data set [1] (administered intravenously) is at least 4. In addition, the AUCinf in data set [6] (1 mg/kg IV) is 3820 ng·h/mL; in data set [6] (1 mg/kg SQ), 4070 ng·h/mL; in data set [7] (setting [14]) it was 442 ng·h/mL; in data set [7] (setting [15]), 397 ng·h/mL; in data set [7] (setting [16]), 1030 ng·h/mL; in data set [7] (setting [17]), 979 ng·h/mL. The AUClast was 3820 ng·h/mL in data set [6] (1 mg/kg IV); 4070 ng·h/mL in data set [6] (1 mg/kg SQ); 439 ng·h/mL in data set [7] (setting [14]); 394 ng·h/mL in data set [7] (setting [15]); 1020 ng·h/mL in data set [7] (setting [16]); 959 ng·h/mL in data set [7] (setting [17]). Besides, the Cl in data set [6] (1 mg/kg IV) was 5 mL/min/kg. In addition, the “T1/2 (λz)” value was 43.8 min in data set [6] (1 mg/kg IV) and 54 min in data set [6] (1 mg/kg SQ). The Vss (usually the apparent volume that relates the amount in the body to the concentration in plasma or blood) in data set [6] (1 mg/kg IV) is 0.27 L/kg. The C0/Cmax in data set [6] (1 mg/kg SQ) is 2620 ng/mL. Moreover, the “F (bioavailability)” value in data set [6] (1 mg/kg SQ) is 106%; in data set [7] (Goat, 2 mg/kg SC vs 1 mg/kg IV, AUCSC/AUCIV x DoseIV/DoseSC) it was 116%. Also, the values for the total exposure AUC(0-inf) in data set [7] (setting [8]) and in data set [7] (setting [11]) were 440 ng·h/mL and 1030 ng·h/mL, respectively. The AUC(0-t) (commonly exposure summed from dosing to a finite time, without extrapolation to infinity) in data set [7] (setting [8]) came to 440 ng·h/mL; in data set [7] (setting [11]), 1020 ng·h/mL. The C0 is 2320 ng/mL in data set [7] (both, pygmy and pygmy-cross, plasma, iv, 1 mg/kg, 1 mg/kg IV single dose, geomean, n = 5); 2880 ng/mL in data set [7] (both, pygmy and pygmy-cross, plasma, iv, 1 mg/kg, 1 mg/kg IV single dose, median, n = 5). The maximum concentration (Cmax) (as a rule, the peak of the concentration-time curve) in data set [7] (both, pygmy and pygmy-cross, plasma, iv, 1 mg/kg, C0/Cmax, Goat, 1 mg/kg IV (Table 3 comparison)) amounted to 2320 ng/mL; in data set [7] (both, pygmy and pygmy-cross, plasma, sc, 2 mg/kg, C0/Cmax, Goat, 2 mg/kg SQ (Table 3 comparison)) it was 1040 ng/mL; in data set [7] (both, pygmy and pygmy-cross, plasma, sc, 2 mg/kg, Cmax, goats, 2 mg/kg SC (SQ) single dose, geomean, n = 5) it was 1040 ng/mL; in data set [7] (both, pygmy and pygmy-cross, plasma, sc, 2 mg/kg, Cmax, goats, 2 mg/kg SC (SQ) single dose, median, n = 5) it was 1060 ng/mL. The clearance in data set [7] (both, pygmy and pygmy-cross, plasma, iv, 1 mg/kg, Cl (plasma clearance), goats, 1 mg/kg IV single dose, geomean, n = 5) was 24.9 mL/min/kg; in data set [7] (both, pygmy and pygmy-cross, plasma, iv, 1 mg/kg, Cl (plasma clearance), goats, 1 mg/kg IV single dose, median, n = 5) it was 21.9 mL/min/kg; in data set [7] (both, pygmy and pygmy-cross, plasma, iv, 1 mg/kg, Cl, Goat, 1 mg/kg IV (Table 3 comparison)) it was 25 mL/min/kg; in data set [7] (both, pygmy and pygmy-cross, plasma, iv, 1 mg/kg, clearance, goats, 1 mg/kg IV, not normalised to body weight) it was 1050 mL/min. Further, the MRT inf (usually a mean duration of stay, worked out from the concentration-time curve) is 9.19 min in data set [7] (setting [9]), 8.41 min in data set [7] (setting [10]), 51.7 min in data set [7] (setting [12]) and 52.1 min in data set [7] (setting [13]). Further, the Vd in data set [7] (both, pygmy and pygmy-cross, plasma, iv, 1 mg/kg, Vss, Goat, 1 mg/kg IV (Table 3 comparison)) came to 0.23 L/kg; in data set [7] (both, pygmy and pygmy-cross, plasma, iv, 1 mg/kg, Vz (volume of distribution), goats, 1 mg/kg IV single dose, geomean, n = 5), 0.23 L/kg; in data set [7] (both, pygmy and pygmy-cross, plasma, iv, 1 mg/kg, Vz (volume of distribution), goats, 1 mg/kg IV single dose, median, n = 5) it was 0.19 L/kg. The k el in data set [7] (setting [9]) was 0.00183 s⁻¹; in data set [7] (setting [10]), 0.00183 s⁻¹; in data set [7] (setting [12]) it was 0.0004 s⁻¹; in data set [7] (setting [13]), 0.000433 s⁻¹. Besides, in data set [7] (both, pygmy and pygmy-cross, plasma, sc, 2 mg/kg, F (bioavailability), Goat, 2 mg/kg SC vs 1 mg/kg IV, AUCSC/AUCIV x DoseIV/DoseSC), the bioavailability (commonly dose-corrected exposure relative to a reference, in per cent) is over 100%. For the same molecule, the half-life (usually the time needed for the level to fall by half in the phase considered) in data set [7] (both, pygmy and pygmy-cross, plasma, sc, 2 mg/kg, T1/2 (λz) elimination half-life, goats, 2 mg/kg SC (SQ) single dose, geomean, n = 5) was 29 min; in data set [7] (both, pygmy and pygmy-cross, plasma, sc, 2 mg/kg, T1/2 (λz) elimination half-life, goats, 2 mg/kg SC (SQ) single dose, median, n = 5) it was 26.8 min; in data set [7] (both, pygmy and pygmy-cross, plasma, sc, 2 mg/kg, T1/2 (λz), Goat, 2 mg/kg SQ), 29.4 min. The Tmax (in general, the time at which the peak concentration occurs) is 22 min in data set [7] (both, pygmy and pygmy-cross, plasma, sc, 2 mg/kg, Tmax, goats, 2 mg/kg SC (SQ) single dose, geomean, n = 5); 20 min in data set [7] (both, pygmy and pygmy-cross, plasma, sc, 2 mg/kg, Tmax, goats, 2 mg/kg SC (SQ) single dose, median, n = 5); 21.69 min in data set [7] (goats, 2 mg/kg SC (SQ) single dose, plasma, geomean, n = 5, 2 mg/kg). In addition, the Vd/F (commonly the volume of distribution divided by bioavailability) in data set [7] (setting [12]) was 0.9 L/kg; in data set [7] (setting [13]), 0.78 L/kg. For the same molecule, the AUMCinf is 244 min²·µg/mL in data set [7] (setting [14]), 222 min²·µg/mL in data set [7] (setting [15]), 3200 min²·µg/mL in data set [7] (setting [16]) and 3780 min²·µg/mL in data set [7] (setting [17]). Moreover, in data set [7] (goats, IV (1 mg/kg) and SC (2 mg/kg), any animal), the “plasma concentrations detected over time” value is “not detected after 4 h”.
